Experimental data as given in patent US12214092B2, “Systems and methods for treating biological fluids” (Cerus Corporation, priority 2017, dated 2025).

Test: Residual post-illumination amotosalen by LED wavelength in bacteria-spiked plasma, HPLC
Settings: for Pre-UV S-59: pre-illumination

Q: Which “Pre-UV S-59” value (E. coli plasma, 15 μM arm, 265 nm arm) does the source give for Cc1oc2c(C)c3oc(=O)cc(C)c3cc2c1COCCN [S-59, 3-(2-aminoethoxymethyl)-2,5,9-trimethylfuro[3,2-g]chromen-7-one] here?
A: The value was 16.0 µM.

Q: What about the “Post-UV S-59” value (E. coli plasma, 15 μM arm, 265 nm, ~3 J/cm^2) of the same molecule?
A: The value was 12.7 µM.

Q: And the “Pre-UV S-59” value (E. coli plasma, 15 μM arm, 280 nm arm)?
A: Its value is 16.2 µM.

Q: What about the “Post-UV S-59” value (E. coli plasma, 15 μM arm, 280 nm, ~3 J/cm^2) of the same molecule?
A: Its value is 12.6 µM.

Q: What about the “Pre-UV S-59” value (E. coli plasma, 15 μM arm, 310 nm arm) of the same molecule?
A: The value was 15.4 µM.

Q: What about the “Post-UV S-59” value (E. coli plasma, 15 μM arm, 310 nm, ~3 J/cm^2) of the same molecule?
A: The value was 5.5 µM.

Q: What about the “Pre-UV S-59” value (E. coli plasma, 15 μM arm, 325 nm arm) of the same molecule?
A: Its value is 15.8 µM.

Q: And the “Post-UV S-59” value (E. coli plasma, 15 μM arm, 325 nm, ~3 J/cm^2)?
A: Its value is 4.0 µM.

Q: What about the “Pre-UV S-59” value (E. coli plasma, 15 μM arm, 340 nm arm) of the same molecule?
A: Its value is 16.0 µM.

Q: What about the “Post-UV S-59” value (E. coli plasma, 15 μM arm, 340 nm, ~3 J/cm^2) of the same molecule?
A: Its value is 3.7 µM.

Q: And the “Pre-UV S-59” value (E. coli plasma, 15 μM arm, 365 nm arm)?
A: The value was 16.2 µM.

Q: What about the “Post-UV S-59” value (E. coli plasma, 15 μM arm, 365 nm, ~3 J/cm^2) of the same molecule?
A: Its value is 8.1 µM.

Q: And the “Pre-UV S-59” value (E. coli plasma, 15 μM arm, 385 nm arm)?
A: The value was 15.3 µM.

Q: What about the “Post-UV S-59” value (E. coli plasma, 15 μM arm, 385 nm, ~3 J/cm^2) of the same molecule?
A: The value was 14.3 µM.

Q: And the “Pre-UV S-59” value (E. coli plasma, 150 μM arm, 265 nm arm)?
A: The value was 148.9 µM.

Q: And the “Post-UV S-59” value (E. coli plasma, 150 μM arm, 265 nm, ~3 J/cm^2)?
A: Its value is 115.0 µM.

Q: What about the “Pre-UV S-59” value (E. coli plasma, 150 μM arm, 280 nm arm) of the same molecule?
A: The value was 152.7 µM.

Q: And the “Post-UV S-59” value (E. coli plasma, 150 μM arm, 280 nm, ~3 J/cm^2)?
A: The value was 148.1 µM.

Q: And the “Pre-UV S-59” value (E. coli plasma, 150 μM arm, 310 nm arm)?
A: Its value is 151.1 µM.

Q: And the “Post-UV S-59” value (E. coli plasma, 150 μM arm, 310 nm, ~3 J/cm^2)?
A: Its value is 56.8 µM.

Q: What about the “Pre-UV S-59” value (E. coli plasma, 150 μM arm, 325 nm arm) of the same molecule?
A: The value was 141.6 µM.

Q: And the “Post-UV S-59” value (E. coli plasma, 150 μM arm, 325 nm, ~3 J/cm^2)?
A: The value was 52.1 µM.

Q: What about the “Pre-UV S-59” value (E. coli plasma, 150 μM arm, 340 nm arm) of the same molecule?
A: Its value is 142.2 µM.

Q: What about the “Post-UV S-59” value (E. coli plasma, 150 μM arm, 340 nm, ~3 J/cm^2) of the same molecule?
A: The value was 48.1 µM.

Q: What about the “Pre-UV S-59” value (E. coli plasma, 150 μM arm, 365 nm arm) of the same molecule?
A: Its value is 153.2 µM.

Q: And the “Post-UV S-59” value (E. coli plasma, 150 μM arm, 365 nm, ~3 J/cm^2)?
A: The value was 79.8 µM.

Q: What about the “Pre-UV S-59” value (E. coli plasma, 150 μM arm, 385 nm arm) of the same molecule?
A: The value was 148.4 µM.

Q: What about the “Post-UV S-59” value (E. coli plasma, 150 μM arm, 385 nm, ~3 J/cm^2) of the same molecule?
A: The value was 135.1 µM.

Q: And the “Pre-UV S-59” value (P. acnes plasma, 15 μM arm, 265 nm arm)?
A: The value was 15.7 µM.

Q: What about the “Post-UV S-59” value (P. acnes plasma, 15 μM arm, 265 nm, ~6.4 J/cm^2) of the same molecule?
A: The value was 10.8 µM.

Q: What about the “Pre-UV S-59” value (P. acnes plasma, 15 μM arm, 280 nm arm) of the same molecule?
A: The value was 15.7 µM.

Q: And the “Post-UV S-59” value (P. acnes plasma, 15 μM arm, 280 nm, ~6.4 J/cm^2)?
A: Its value is 16.0 µM.

Q: What about the “Pre-UV S-59” value (P. acnes plasma, 15 μM arm, 310 nm arm) of the same molecule?
A: Its value is 15.7 µM.

Q: And the “Post-UV S-59” value (P. acnes plasma, 15 μM arm, 310 nm, ~6.4 J/cm^2)?
A: Its value is 2.2 µM.

Q: And the “Pre-UV S-59” value (P. acnes plasma, 15 μM arm, 325 nm arm)?
A: The value was 15.7 µM.

Q: What about the “Post-UV S-59” value (P. acnes plasma, 15 μM arm, 325 nm, ~6.4 J/cm^2) of the same molecule?
A: Its value is 1.1 µM.

Q: What about the “Pre-UV S-59” value (P. acnes plasma, 15 μM arm, 340 nm arm) of the same molecule?
A: Its value is 15.7 µM.

Q: And the “Post-UV S-59” value (P. acnes plasma, 15 μM arm, 340 nm, ~6.4 J/cm^2)?
A: Its value is 1.4 µM.

Q: What about the “Pre-UV S-59” value (P. acnes plasma, 15 μM arm, 365 nm arm) of the same molecule?
A: The value was 15.7 µM.

Q: And the “Post-UV S-59” value (P. acnes plasma, 15 μM arm, 365 nm, ~6.4 J/cm^2)?
A: The value was 5.5 µM.

Q: And the “Pre-UV S-59” value (P. acnes plasma, 15 μM arm, 385 nm arm)?
A: The value was 15.7 µM.

Q: What about the “Post-UV S-59” value (P. acnes plasma, 15 μM arm, 385 nm, ~6.4 J/cm^2) of the same molecule?
A: The value was 13.7 µM.

Q: And the “Pre-UV S-59” value (S. epidermidis plasma, 15 μM arm, 265 nm arm)?
A: Its value is 14.4 µM.

Q: What about the “Post-UV S-59” value (S. epidermidis plasma, 15 μM arm, 265 nm, ~3 J/cm^2) of the same molecule?
A: The value was 13.0 µM.

Q: What about the “Pre-UV S-59” value (S. epidermidis plasma, 15 μM arm, 280 nm arm) of the same molecule?
A: Its value is 14.8 µM.

Q: What about the “Post-UV S-59” value (S. epidermidis plasma, 15 μM arm, 280 nm, ~3 J/cm^2) of the same molecule?
A: The value was 11.8 µM.

Q: And the “Pre-UV S-59” value (S. epidermidis plasma, 15 μM arm, 310 nm arm)?
A: Its value is 14.3 µM.

Q: What about the “Post-UV S-59” value (S. epidermidis plasma, 15 μM arm, 310 nm, ~3 J/cm^2) of the same molecule?
A: The value was 5.2 µM.

Q: What about the “Pre-UV S-59” value (S. epidermidis plasma, 15 μM arm, 325 nm arm) of the same molecule?
A: Its value is 14.9 µM.

Q: And the “Post-UV S-59” value (S. epidermidis plasma, 15 μM arm, 325 nm, ~3 J/cm^2)?
A: The value was 3.7 µM.

Q: And the “Pre-UV S-59” value (S. epidermidis plasma, 15 μM arm, 340 nm arm)?
A: Its value is 14.8 µM.

Q: What about the “Post-UV S-59” value (S. epidermidis plasma, 15 μM arm, 340 nm, ~3 J/cm^2) of the same molecule?
A: The value was 3.6 µM.

Q: What about the “Pre-UV S-59” value (S. epidermidis plasma, 15 μM arm, 365 nm arm) of the same molecule?
A: The value was 14.8 µM.

Q: What about the “Post-UV S-59” value (S. epidermidis plasma, 15 μM arm, 365 nm, ~3 J/cm^2) of the same molecule?
A: Its value is 7.8 µM.

Q: And the “Pre-UV S-59” value (S. epidermidis plasma, 15 μM arm, 385 nm arm)?
A: The value was 15.0 µM.

Q: And the “Post-UV S-59” value (S. epidermidis plasma, 15 μM arm, 385 nm, ~3 J/cm^2)?
A: Its value is 15.1 µM.

Q: And the residual amotosalen (amotosalen+325 nm and amotosalen+340 nm illumination)?
A: Its residual amotosalen is “less than 5 μM”.
